Results published in patent US7456154B2 (priority 2001, dated 2008).

Tested on: MG patients
Test: Phase Ib clinical trial of oral hEN101 in MG patients (QMG score)
Assay type: in vivo, human
Conditions: for Decrease in mean total QMG score from baseline: baseline mean total score 13.2
Method: Protocol for Phase Ib Clinical Trial of MG patients using hEN101: Patients were hospitalized and pyridostigmine was discontinued for 12-18 hours before EN101 testing. Assessment of MG status was performed first at entry, then after pyridostigmine stoppage, and regularly after EN101 treatment using a Quantitative MG (QMG) score. Escalating oral doses of EN101 (10-150 μg/kg) were given in the first day (day 1) followed by a daily dose of 500 μg/kg for 3 days (days 2-4). Days 5 and 6 were washout period without pyridostigmine, and restitution of pyridostigmine occurred when it became necessary. Patients were monitored for 1 month thereafter, with three visits as out-patients.
The following parameters were used as inclusion criteria: • Class II and above, according to MGFA classification (myasthenia gravis standard clinical classification of the disease severity score); • Age 18-70; • Seropositive for AChR antibodies; • Patients under pyridostigmine (180 mg/day) treatment without concomitant immunosuppressants; • Stable for 3 months, with no PE (plasma exchange) for 6 months; • No other major or active diseases.
Evaluation of the MG status of each patient was based on the following parameters: • (a) QMG scoring (maximum value of 9), based on the measurements of: • Fatigue in each limb (4); • Fatigue of the neck (1); • Swallowing rate (1); • Power in the hands (2); • Respirometry (1). • These measurements were taken daily, 4 times per day, and averaged for days 2-6. • (b) Patient's subjective report; • (c) Vital signs, clinical chemistry, hematology, urinalysis, ECG and physical examination, recorded daily.
16 patients with stable generalized MG requiring constant AChE inhibitors (pyridostigmine) for daily function were recruited, after approval by human ethics committees of the respective hospitals involved in the present trial (Hadassah Medical Center, Jerusalem, Israel and Greater Manchester Neurosciences Center, Hope Hospital, Salford, England).

## 5′-CTGCCACGTTCTCCTGCACC-3′ [hEN101]
Day 2
  Decrease in mean total QMG score from baseline: 3.0
Day 3
  Decrease in mean total QMG score from baseline: 4.8
Day 4
  Decrease in mean total QMG score from baseline: 5.7
Day 5
  Decrease in mean total QMG score from baseline: 5.5
Day 6
  Decrease in mean total QMG score from baseline: 6.0
Experimental period and month following discharge
  Vital signs, chemical chemistry, hematology, urinalysis, ECG and physical examination: remained unchanged
human, in vivo
  Cholinergic side effects: not reported
  Duration of improved scores following the final dose: up to 72 hours
  Serious adverse effects: No serious adverse effects were observed
oral, 10-150 μg/kg day 1, 500 μg/kg days 2-4
  Patients with clear symptomatic improvement: 15 out of 16
